The results in this text go back to ChEMBL document CHEMBL1158451, “Generation of ligand-based pharmacophore model and virtual screening for identification of novel tubulin inhibitors with potent anticancer activity” (J Med Chem, 2009).

Each structure is given as a SMILES string. Active and inactive are the calls of the source. The rule behind the calls is not given here.

The test system of assay [1] is KB. The assay can be described thus: Growth inhibition of human KB cells by methylene blue assay. In kind it is functional, cell-based.
Assay [2] deals with KB. The assay can be described thus: Cell cycle arrest in human KB cells assessed as accumulation at G2/M phase at 400 nM using propidium iodide staining by flow cytometry. Particulars: TDE = time-dependent effect. In kind it is functional, cell-based.
In the next assay the test system is MCF7. The assay is described as follows: Antiproliferative activity against human MCF7 cells after incubation for three generations by MTS assay. In kind it is functional, cell-based. (In general: Formazan colour is commonly taken as a measure of viable cells.)
For a further assay, the species on record is Bos taurus. The assay is described as follows: (§1) Inhibition of bovine brain tubulin polymerization after 30 mins by […] assay.
Assay [3] in a line: as §1. Also on record: species or system Bos taurus.
The subject of assay [4] is KB. The assay can be described thus: Cell cycle arrest in human KB cells assessed as loss of accumulation at G0/G1 phase at 400 nM using propidium iodide staining by flow cytometry. Particulars: TDE = time-dependent effect. In kind it is functional, cell-based.
The test system of assay [5] is KB. The assay can be described thus: Cell cycle arrest in human KB cells assessed as accumulation at G2/M phase at 400 nM after 24 hrs using propidium iodide staining by flow cytometry. In kind it is functional. For orientation: Flow cytometry measures light scatter and fluorescence of single cells or particles in a stream.
Assay [6] relates to HCT-116. The assay is described as follows: Antiproliferative activity against human HCT116 xenografted tumor histoculture at 10uM after 48 hrs by hematoxylin staining. In kind it is functional, cell-based. On the technique in general: A xenograft is tissue or cells of one species grown in another, often human tumour cells in immunodeficient mice.
The subject of assay [7] is KB. The assay can be described thus: Antiproliferative activity against human KB cells after incubation for three generations by MTS assay. The class given is functional, cell-based.
Another assay deals with SF-268. The assay is described as follows: Antiproliferative activity against human SF268 cells after three generation of incubation by MTS assay. The class given is functional, cell-based.
Assay [8] deals with KB. The assay is described as follows: Cell cycle arrest in human KB cells assessed as loss of accumulation at G0/G1 phase after 24 hrs using propidium iodide staining by flow cytometry. In kind it is functional, cell-based.
Assay [9] has as its system KB. The assay can be described thus: Cell cycle arrest in human KB cells assessed as accumulation at G2/M phase at 800 nM after 24 hrs using propidium iodide staining by flow cytometry. The class given is functional.
A further assay deals with NCI-H460. The assay can be described thus: Antiproliferative activity against human NCI-H460 cells after incubation for three generations by MTS assay. In kind it is functional, cell-based.
The test system of assay [10] is KB. The assay is described as follows: Cell cycle arrest in human KB cells assessed as accumulation at sub-G1 phase at 400 nM using propidium iodide staining by flow cytometry. The class given is functional, cell-based. Particulars: TDE = time-dependent effect.
For assay [11], the system named is KB. The assay is described as follows: Cell cycle arrest in human KB cells assessed as accumulation at G2/M phase after 24 hrs using propidium iodide staining by flow cytometry. In kind it is functional, cell-based.
Assay [12] deals with HCT-116. The assay can be described thus: Antiproliferative activity against human HCT116 xenografted tumor histoculture at 1 uM after 48 hrs by hematoxylin staining. The class given is functional, cell-based.
Assay [13] deals with HCT-116. The assay can be described thus: Antiproliferative activity against human HCT116 xenografted tumor histoculture at 100 uM after 48 hrs by hematoxylin staining. In kind it is functional, cell-based.
A short description of assay [14]: Inhibition of tubulin polymerization.
Assay [15] is described as follows: Inhibition of bovine cerebral cortex tubulin polymerization up to 30 mins. The arrangement: species or system Bos taurus.

Broadly, the IC50 is the point on the concentration scale where inhibition reaches its midpoint.

`COc1ccc2c(C(=O)c3cc(OC)c(OC)c(OC)c3)cn(CCN(C)C)c2c1`: the IC50 in the assay on KB [1] is 200 nM.

`COc1ccc2c(C(=O)c3cc(OC)c(OC)c(OC)c3)cn(S(=O)(=O)c3ccccc3)c2c1`: the IC50 in the assay with KB [1] was 200 nM.

Take `COc1ccc2c(C(=O)c3cc(OC)c(OC)c(OC)c3)cn(Cc3ccncc3)c2c1`: in the assay with KB [1], the IC50 worked out at 210 nM.

As for `COc1ccc2c(C(=O)c3cc(OC)c(OC)c(OC)c3)cn(CCCCCCN(C)C)c2c1`, the IC50 in the assay with KB [1] amounted to 2100 nM.

In the case of `CCCCCc1[nH]c2cc(OC)ccc2c1C(=O)c1cc(OC)c(OC)c(OC)c1`, half-maximal inhibition in the assay with KB [1] (IC50) was put at 38 nM.

Compound `CCCc1[nH]c2cc(OC)ccc2c1C(=O)c1cc(OC)c(OC)c(OC)c1` yielded an IC50 with KB [1] of 11 nM.

As for `Cc1ccc(CCC(=O)Nc2ncc(Cc3cc(Cl)ccc3Cl)s2)o1`, the Activity result was “tde” in the assay on KB [2]; “Dose-dependent effect” in the assay filed under Bos taurus; “tde” in the assay on KB [4]; 55.6% in the assay on KB [5]; “Dose-dependent effect” in the assay on KB [8]; 70.3% in the assay on KB [9]. Also, the Activity result was “tde” in the assay on KB [10] and “Dose-dependent effect” with KB [11]. The IC50 came out at 236 nM with MCF7; 4400 nM in assay [3]; 187 nM with KB [7]; 319 nM with SF-268; 285 nM in the assay with NCI-H460; 187 nM in the assay on KB [1]. The outcome in the assay with HCT-116 [6], in the assay with HCT-116 [12] and in the assay with HCT-116 [13] was Active.

In the case of `CCCCCCn1cc(C(=O)c2cc(OC)c(OC)c(OC)c2)c2ccc(OC)cc21`, in the assay with KB [1], the IC50 amounted to 455 nM. This counts as sub-micromolar.

Turning to `COc1cc2c(c(N)c1OC)C(=O)/C(=C\c1cc(C)c(O)c(C)c1)C2` [INDANOCINE], in assay [14], it took 1700 nM to reach half-maximal inhibition (IC50).

`COc1ccc2c(C(=O)c3cc(OC)c(OC)c(OC)c3)c(CCCCO)[nH]c2c1`: in the assay with KB [1], the IC50 came out at 6.6 nM.

Take `COc1ccc2c(C(=O)c3cc(OC)c(OC)c(OC)c3)c(C)n(CCN3CCCCC3)c2c1`: it took 222 nM to reach half-maximal inhibition in the assay on KB [1] (IC50).

With `COc1ccc2c(C(=O)c3cc(OC)c(OC)c(OC)c3)cn(CCCCCCO)c2c1`, the IC50 in the assay with KB [1] was 70 nM.

`Cc1ccc(C)c(Nc2cc(C)nc(-c3ccccc3O)n2)c1` registered a concentration for half-maximal inhibition (IC50) in the assay on KB [1] of 3000 nM.

Compound `CCCn1cc(C(=O)c2cc(OC)c(OC)c(OC)c2)c2ccc(OC)cc21` registered a half-maximal inhibitory concentration (IC50) with KB [1] of 180 nM.

For the compound `COc1ccc2c(C(=O)c3cc(OC)c(OC)c(OC)c3)cn(CCN3CCC[C@@H]3CO)c2c1`, the midpoint of inhibition in the assay with KB [1], the IC50, lay at 500 nM.

In the assay with KB [1], `COc1ccc2ccccc2c1-c1cc(C(=O)N/N=C/c2cccs2)[nH]n1` had an IC50 of 5700 nM.

`COc1ccc2c(C(=O)c3cc(OC)c(OC)c(OC)c3)cn(C)c2c1` had an IC50 with KB [1] of 34 nM.

In the assay with KB [1], `COc1ccc2c(C(=O)c3cc(OC)c(OC)c(OC)c3)cn(CCO)c2c1` had an IC50 of 55 nM.

Consider `COc1ccc2c(C(=O)c3cc(OC)c(OC)c(OC)c3)cn(CCN3CCN(C)CC3)c2c1`, for which inhibition with KB [1] was half-maximal at 4100 nM (IC50).

`CCCCCCc1[nH]c2cc(OC)ccc2c1C(=O)c1cc(OC)c(OC)c(OC)c1` returned a half-inhibitory concentration (IC50) in the assay on KB [1] of 37.8 nM.

As to `COc1ccc2c(C(=O)c3cc(OC)c(OC)c(OC)c3)c(CO)[nH]c2c1`, in the assay on KB [1], the IC50 turned out to be 1.2 nM.

Compound `COc1ccc2c(C(=O)c3cc(OC)c(OC)c(OC)c3)cn(CCCN(C)C)c2c1` came in with an IC50 in the assay on KB [1] of 1700 nM.

`CCOC(=O)n1cc(C(=O)c2cc(OC)c(OC)c(OC)c2)c2ccc(OC)cc21`: half-maximal inhibition in the assay with KB [1] (IC50) required 73 nM.

`COc1ccc2c(C(=O)c3cc(OC)c(OC)c(OC)c3)cn(CCCCO)c2c1` showed a half-maximal inhibitory concentration (IC50) in the assay with KB [1] of 75 nM.

With `CCn1cc(C(=O)c2cc(OC)c(OC)c(OC)c2)c2ccc(OC)cc21`, in the assay with KB [1], the IC50 was 64 nM.

`CCOC(=O)Cc1[nH]c2cc(OC)ccc2c1C(=O)c1cc(OC)c(OC)c(OC)c1` yielded an IC50 with KB [1] of 3.9 nM.

In turn, `COc1ccc2c(C(=O)c3cc(OC)c(OC)c(OC)c3)cn(CCN3CCCCCC3)c2c1` registered an IC50 with KB [1] of 280 nM.

Turning to `CCCCn1c(C)c(C(=O)c2cc(OC)c(OC)c(OC)c2)c2ccc(OC)cc21`, the IC50 in the assay on KB [1] was found to be 346 nM.

Take `COc1ccc2c(C(=O)c3cc(OC)c(OC)c(OC)c3)cn(CCN3CCCCC3)c2c1`: in the assay with KB [1], half-maximal inhibition (IC50) was put at 93 nM.

In the assay on KB [1], `COc1ccc2c(C(=O)c3cc(OC)c(OC)c(OC)c3)cn(CCCCCN(C)C)c2c1` yielded a half-maximal inhibitory concentration (IC50) of 1800 nM.

Regarding `COc1ccc2c(C(=O)c3cc(OC)c(OC)c(OC)c3)cn(CCN3CCCC3)c2c1`, in the assay with KB [1], it took 406 nM to reach half-maximal inhibition (IC50).

Turning to `COc1ccc2c(C(=O)c3cc(OC)c(OC)c(OC)c3)c(CN(C)C)[nH]c2c1`, the IC50 in the assay with KB [1] stood at 49.8 nM.

Compound `COc1ccc2c(C(=O)c3cc(OC)c(OC)c(OC)c3)c(CCCO)[nH]c2c1` showed an IC50 in the assay on KB [1] of 92 nM.

Consider `CCCCc1[nH]c2cc(OC)ccc2c1C(=O)c1cc(OC)c(OC)c(OC)c1`, for which, in the assay with KB [1], half-maximal inhibition (IC50) required 14.3 nM.

`COc1ccc2c(C(=O)c3cc(OC)c(OC)c(OC)c3)cn(CCCCN(C)C)c2c1` registered an IC50 with KB [1] of 6000 nM.

Consider `COC(=O)c1[nH]c2cc(OC)ccc2c1C(=O)c1cc(OC)c(OC)c(OC)c1`, for which 5.5 nM corresponded to half-maximal inhibition in the assay with KB [1] (IC50).

`COc1ccc2c(C(=O)c3cc(OC)c(OC)c(OC)c3)c(CCCCCO)[nH]c2c1`: in the assay on KB [1], it took 57.3 nM to reach half-maximal inhibition (IC50).

On to `COc1ccc2c(C(=O)c3cc(OC)c(OC)c(OC)c3)cn(-c3ccc([N+](=O)[O-])cc3)c2c1`, for which the midpoint of inhibition in the assay on KB [1], the IC50, lay at 290 nM.

As for `COc1ccc2c(C(=O)c3cc(OC)c(OC)c(OC)c3)cn(C(=O)N3CCOCC3)c2c1`, in the assay on KB [1], the IC50 stood at 237 nM.

Compound `COc1ccc2c(C)cc(N/N=C/c3ccccc3O)nc2c1` displayed an IC50 in the assay on KB [1] of 2000 nM.

On to `O=C(/C=C/c1ccccc1)c1ccccc1` [CHALCONE], for which half-maximal inhibition in assay [14] (IC50) was put at 10000 nM.

The compound `CCN(CC)CCn1c(C)c(C(=O)c2cc(OC)c(OC)c(OC)c2)c2ccc(OC)cc21` displayed a 50% inhibitory concentration (IC50) in the assay on KB [1] of 288 nM. That is a sub-micromolar value.

Regarding `CCN(CC)CCn1cc(C(=O)c2cc(OC)c(OC)c(OC)c2)c2ccc(OC)cc21`, the IC50 in the assay with KB [1] worked out at 1800 nM.

In the case of `C1=NNCO1` [OXADIAZOLINE], the IC50 in [15] was 4500 nM.

In turn, `CCCCCn1cc(C(=O)c2cc(OC)c(OC)c(OC)c2)c2ccc(OC)cc21` registered an IC50 in the assay with KB [1] of 350 nM.

Turning to `COc1ccc2c(C(=O)c3cc(OC)c(OC)c(OC)c3)cn(C(C)C)c2c1`, in the assay on KB [1], the IC50 is 287 nM. This IC50 and that of the compound before are within 1.5-fold of each other.

For the compound `COc1ccc2c(C(=O)c3cc(OC)c(OC)c(OC)c3)cn(CCN3CCN(c4ccccn4)CC3)c2c1`, the IC50 in the assay on KB [1] was 292 nM. The IC50 values of the last two compounds are within 1.5-fold of each other.

Turning to `COc1ccc(-n2cc(C(=O)c3cc(OC)c(OC)c(OC)c3)c3ccc(OC)cc32)cc1`, in the assay on KB [1], the IC50 stood at 207 nM.

In the assay with KB [1], `COc1ccc2c(C(=O)c3cc(OC)c(OC)c(OC)c3)c(C)n(CCN(C)C)c2c1` had an IC50 of 332 nM.
